We go through nine compounds from ChEMBL document CHEMBL5241112, “Insights into the recent progress in the medicinal chemistry of pyranopyrimidine analogs” (RSC Med Chem, 2022).

In one assay the target is DNA topoisomerase II (Homo sapiens, UniProt P11388+Q02880). The experiment in a line: Inhibition of DNA topoisomerase 2 (unknown origin). Format: protein assay.
A further assay has as its target DNA. In words: Binding affinity to DNA (unknown origin) assessed as DNA intercalation. It counts as nucleic-acid assay.
The subject of a further assay is HCT-116. In words: cells. Conditions: Homo sapiens.
In the next assay the test system is MCF7. In words: Anticancer activity against human MCF7 cells assessed as reduction in cell viability. Format: functional, cell-based.
For another assay, the system named is HepG2. In words: Anticancer activity against human HepG2 cells assessed as reduction in cell viability. It counts as functional, cell-based.
Assay [1] deals with Candida albicans. In words: Antifungal activity against Candida albicans MTCC 3008 assessed as fungal growth inhibition by broth microdilution method. It counts as functional.
Assay [2] deals with Candida albicans. In words: Antifungal activity against Candida albicans assessed as diameter of inhibition zone incubated for 48 hrs by agar well diffusion method. It counts as functional.
Assay [3] in a line: Antioxidant activity assessed as DPPH radical scavenging activity at 12 ug incubated for 30 mins by spectrophotometric analysis. It counts as functional. Conditions: dose 12.0 µg.
The test system of assay [4] is Staphylococcus aureus. In words: Antibacterial activity against Staphylococcus aureus NCIM 2654 assessed as diameter of inhibition zone incubated for 24 hrs by agar well diffusion method. It counts as functional.
The test system of assay [5] is Escherichia coli. In words: Antibacterial activity against Escherichia coli NCIM 2066 assessed as diameter of inhibition zone incubated for 24 hrs by agar well diffusion method. It counts as functional.
For assay [6], the system named is Pseudomonas aeruginosa. The experiment in a line: Antibacterial activity against Pseudomonas aeruginosa MTCC 741 assessed as diameter of inhibition zone at 0.1 mg/ml incubated for 24 hrs by agar well diffusion method. It counts as functional. Conditions: read-out: DIZ.
The subject of assay [7] is Escherichia coli. The experiment in a line: Antibacterial activity against Escherichia coli MTCC 723 assessed as diameter of inhibition zone at 0.1 mg/ml incubated for 24 hrs by agar well diffusion method. It counts as functional. Conditions: read-out: DIZ.
The target in the next assay is Alpha-glucosidase (Saccharomyces cerevisiae S288c, UniProt P53341+P38158+P07265). The experiment in a line: Inhibition of Saccharomyces cerevisiae alpha-glucosidase preincubated for 5 mins followed by PNP-GLUC substrate addition and measured after 20 mins by spectroscopic analysis. Format: protein assay.
The target in the next assay is Albumin (Bos taurus, UniProt P02769). In words: […] bovine serum albumin denaturation incubated for 23 mins by UV-Visible spectrophotometry.
Sequence of Albumin (P02769 whole entry): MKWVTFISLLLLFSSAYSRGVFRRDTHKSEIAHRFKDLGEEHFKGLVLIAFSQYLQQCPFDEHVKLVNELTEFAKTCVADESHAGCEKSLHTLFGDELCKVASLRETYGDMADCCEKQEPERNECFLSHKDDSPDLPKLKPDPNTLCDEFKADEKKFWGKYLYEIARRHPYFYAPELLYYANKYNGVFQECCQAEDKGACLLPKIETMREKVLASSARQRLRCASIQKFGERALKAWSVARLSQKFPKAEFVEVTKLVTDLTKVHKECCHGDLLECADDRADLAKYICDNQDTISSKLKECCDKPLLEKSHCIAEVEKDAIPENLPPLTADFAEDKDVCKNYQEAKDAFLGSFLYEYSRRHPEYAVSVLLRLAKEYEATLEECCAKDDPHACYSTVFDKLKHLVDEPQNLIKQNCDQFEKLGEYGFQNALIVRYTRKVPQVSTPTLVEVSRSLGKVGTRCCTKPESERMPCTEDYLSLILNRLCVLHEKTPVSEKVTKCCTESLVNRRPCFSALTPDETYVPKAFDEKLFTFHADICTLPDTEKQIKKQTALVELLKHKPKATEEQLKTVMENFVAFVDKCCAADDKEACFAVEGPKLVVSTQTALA
A short description of assay [8]: Inhibition of porcine pancreatic alpha-amylase preincubated for 10 mins followed by substrate starch addition and measured after 10 mins by colorimetric analysis. On the set-up: species or system Sus scrofa.
Assay [9] concerns Pseudomonas aeruginosa. The experiment in a line: Antibacterial activity against Pseudomonas aeruginosa assessed as inhibition of bacterial growth. Format: functional.
In another assay the test system is Aspergillus flavus. The experiment in a line: Antifungal activity against Aspergillus flavus assessed as inhibition of fungal growth. It counts as functional.
Assay [10] deals with Escherichia coli. The experiment in a line: Antibacterial activity against Escherichia coli assessed as inhibition of bacterial growth. Format: functional.
The subject of assay [11] is Candida albicans. In words: Antifungal activity against Candida albicans assessed as inhibition of fungal growth. It counts as functional.
Assay [12] relates to Staphylococcus aureus. In words: Antibacterial activity against Staphylococcus aureus assessed as inhibition of bacterial growth. It counts as functional.
The test system of the next assay is Aspergillus niger. In words: Antifungal activity against Aspergillus niger assessed as inhibition of fungal growth. Format: functional.
The test system of assay [13] is Escherichia coli. In words: Antibacterial activity against Escherichia coli ATCC 25922 assessed as diameter of inhibition zone at 50 mg/ml incubated for 24 hrs by paper disk diffusion method. The note with it: read-out: DIZ. Format: functional.
Another assay deals with Aspergillus fumigatus. The experiment in a line: microbe, parasite or virus in culture. Format: functional. Conditions: ATCC204305, dose 50 mg/ml, time 24 hrs, read-out: DIZ.
The test system of assay [14] is Staphylococcus aureus. The experiment in a line: Antibacterial activity against Staphylococcus aureus ATCC6538-P assessed as diameter of inhibition zone at 50 mg/ml incubated for 24 hrs by paper disk diffusion method. Format: functional. The note with it: read-out: DIZ.
The subject of assay [15] is Pseudomonas aeruginosa. In words: Antimicrobial activity against Pseudomonas aeruginosa ATCC 27853 assessed as diameter of inhibition zone at 20 mg/ml incubated for 24 hrs by disk diffusion method. Format: functional. Conditions: read-out: DIZ.
In assay [16] the test system is Staphylococcus aureus. The experiment in a line: Antibacterial activity against Staphylococcus aureus assessed as diameter of inhibition zone. It counts as functional.
A further assay concerns Klebsiella pneumoniae. In words: Antimicrobial activity against Klebsiella pneumoniae UC57 assessed as diameter of inhibition zone at 20 mg/ml incubated for 24 hrs by disk diffusion method. Format: functional. Conditions: read-out: DIZ.
In a further assay the test system is Bacillus subtilis. In words: Antibacterial activity against Bacillus subtilis assessed as diameter of inhibition zone. Format: functional.
In assay [17] the test system is Escherichia coli. In words: Antibacterial activity against Escherichia coli assessed as diameter of inhibition zone. It counts as functional.
Assay [18] relates to Staphylococcus aureus. The experiment in a line: Antimicrobial activity against Staphylococcus aureus NCTC7447 assessed as diameter of inhibition zone at 20 mg/ml incubated for 24 hrs by disk diffusion method. It counts as functional. The note with it: read-out: DIZ.
For assay [19], the system named is Escherichia coli. The experiment in a line: Antimicrobial activity against Escherichia coli ATCC 14169 assessed as diameter of inhibition zone at 20 mg/ml incubated for 24 hrs by disk diffusion method. It counts as functional. Conditions: read-out: DIZ.
Another assay has as its target Urease (Canavalia ensiformis, UniProt P07374). In words: Inhibition of jack bean urease by phenol red method.
The test system of the next assay is Salmonella typhimurium. The experiment in a line: Antibacterial activity against Salmonella typhimurium assessed as diameter of inhibition zone. Format: functional, Salmonella enterica subsp. enterica serovar Typhimurium.
The subject of the next assay is Bacillus cereus. The experiment in a line: Antimicrobial activity against Bacillus cereus ATCC14579 assessed as diameter of inhibition zone at 20 mg/ml incubated for 24 hrs by disk diffusion method. Conditions: read-out: DIZ. Format: functional.
The next assay concerns NUGC. The experiment in a line: Anticancer activity against human NUGC cells assessed as cell growth inhibition incubated for 24 hrs. Format: functional, cell-based.
The test system of the next assay is DLD-1. In words: Anticancer activity against human DLD-1 cells assessed as cell growth inhibition incubated for 24 hrs. It counts as functional, cell-based. Conditions: DLD-1, 24 h.

Values after ≈ are worked out from the molar mass of the structure shown.

Sequence of Urease (P07374 whole entry): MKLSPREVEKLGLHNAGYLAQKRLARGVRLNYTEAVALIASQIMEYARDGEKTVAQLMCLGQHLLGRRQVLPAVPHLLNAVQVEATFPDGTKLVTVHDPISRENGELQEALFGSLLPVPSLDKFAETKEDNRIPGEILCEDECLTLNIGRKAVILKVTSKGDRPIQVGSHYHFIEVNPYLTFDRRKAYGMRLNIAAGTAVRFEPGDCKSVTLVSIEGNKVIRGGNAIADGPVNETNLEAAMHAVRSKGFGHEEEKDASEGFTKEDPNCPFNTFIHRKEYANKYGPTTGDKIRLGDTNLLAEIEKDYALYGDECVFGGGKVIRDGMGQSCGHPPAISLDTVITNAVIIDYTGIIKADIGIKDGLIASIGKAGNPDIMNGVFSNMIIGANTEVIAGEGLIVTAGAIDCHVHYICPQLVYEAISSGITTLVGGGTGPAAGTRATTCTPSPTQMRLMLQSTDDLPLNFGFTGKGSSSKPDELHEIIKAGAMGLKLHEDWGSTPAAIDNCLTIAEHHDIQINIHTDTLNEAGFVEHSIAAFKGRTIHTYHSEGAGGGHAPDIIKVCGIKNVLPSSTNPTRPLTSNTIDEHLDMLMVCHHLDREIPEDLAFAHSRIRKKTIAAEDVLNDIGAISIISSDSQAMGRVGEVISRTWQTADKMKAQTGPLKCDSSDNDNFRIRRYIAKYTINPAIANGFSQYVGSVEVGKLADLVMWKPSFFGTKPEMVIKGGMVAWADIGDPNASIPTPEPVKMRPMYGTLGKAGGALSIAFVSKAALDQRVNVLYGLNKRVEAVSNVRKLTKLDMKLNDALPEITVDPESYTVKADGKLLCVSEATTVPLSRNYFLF

For `COc1ccc(C2c3c([nH]c(=O)[nH]c3=O)Oc3ncn(-c4ccccc4O)c(=N)c32)cc1` (stereo not drawn), the IC50 against DNA topoisomerase II is 0.776 µM; on DNA it was 29.9 µM; in the assay on HCT-116 it was 2.61 µM; with MCF7, 2.43 µM; in the assay on HepG2 it was 2.09 µM.
Regarding `COC1=CC(=O)C[C@@H](C)[C@]12Oc1c(Cl)c(OC)cc(OC)c1C2=O` [GRISEOFULVIN], the MIC with Candida albicans [1] was found to be 500 µg/mL (≈ 1420 µM).
For the compound `Cc1n[nH]c2c1C(c1ccccc1)c1c([nH]c(=O)[nH]c1=O)O2` (stereo not drawn), the “diameter of the inhibition zone (DIZ)” value with Candida albicans [2] is recorded as 23 mm; in the assay on Staphylococcus aureus [4], 18 mm; in the assay with Escherichia coli [5] it was 14 mm. Moreover, the Activity in assay [3] turned out to be 65.8%.
The like results for `Cc1ccc(C2c3c(C)n[nH]c3Oc3[nH]c(=O)[nH]c(=O)c32)cc1` (stereo not drawn) were, in that order, 27 mm, 25 mm, 23 mm and 71.9%.
Regarding `O=C(C1=C(c2ccccc2O)Oc2[nH]c(=S)[nH]c(=O)c2C1c1ccc(Cl)cc1)N1CCCCC1` (stereo not drawn), the results for the zone of inhibition at 100 µg/mL in the assay with Pseudomonas aeruginosa [6] and in the assay on Escherichia coli [7] were 13.1 mm and 14.1 mm, respectively. Moreover, the IC50 is 4021 µM at Alpha-glucosidase, 26.7 µM at Albumin and 9.9 µM in assay [8].
For `N#CC1=C(N)Oc2[nH]c(=O)[nH]c(=O)c2C1Cc1ccccc1` (stereo not drawn), the MIC was 87.5 µg/mL (≈ 295 µM) in the assay with Pseudomonas aeruginosa [9]; 150 µg/mL (≈ 506 µM) with Aspergillus flavus; 25 µg/mL (≈ 84.4 µM) in the assay on Escherichia coli [10]; 125 µg/mL (≈ 422 µM) in the assay on Candida albicans [11]; 25 µg/mL (≈ 84.4 µM) with Staphylococcus aureus [12]; 162 µg/mL (≈ 548 µM) with Aspergillus niger.
Take `O=c1[nH]cnc2c1C(c1ccc(Cl)cc1)C=C(c1cc3ccccc3oc1=O)O2` (stereo not drawn): the zone of inhibition at 50000 µg/mL in the assay with Escherichia coli [13], with Aspergillus fumigatus and in the assay on Staphylococcus aureus [14] was 10 mm throughout.
Consider `COc1ccc(C2C(C#N)=C(N)Oc3[nH]c(=O)[nH]c(=O)c32)cc1` (stereo not drawn), for which the MIC in the assay with Pseudomonas aeruginosa [9] was found to be 25 µg/mL (≈ 80.1 µM); in the assay on Aspergillus flavus it was 150 µg/mL (≈ 480 µM); with Escherichia coli [10], 25 µg/mL (≈ 80.1 µM); with Candida albicans [11], 125 µg/mL (≈ 400 µM); with Aspergillus niger it was 162 µg/mL (≈ 520 µM). For the same compound, the zone of inhibition at 20000 µg/mL amounted to 5 mm in the assay on Pseudomonas aeruginosa [15]; 14 mm with Klebsiella pneumoniae; 14 mm in the assay with Staphylococcus aureus [18]; 8 mm in the assay on Escherichia coli [19]; 11 mm in the assay on Bacillus cereus. In addition, the “diameter of the inhibition zone (DIZ)” value was 10 mm in the assay on Staphylococcus aureus [16], 12 mm with Bacillus subtilis, 10 mm in the assay with Escherichia coli [17] and 8 mm in the assay on Salmonella typhimurium. In addition, the half-maximal inhibitory concentration (IC50) turned out to be 2.61 µM in the assay with HCT-116, 2.43 µM in the assay with MCF7, 62.9 µM against Urease and 2.09 µM in the assay with HepG2.
As for `N#CC1=C(N)C2C(=NC(n3[nH]c(N)cc3=O)=NC2c2ccc(Cl)cc2)OC1=O` (stereo not drawn), the IC50 in the assay with NUGC worked out at 2.21 µM; with DLD-1 it was 2.13 µM.
